# Laboratory results from patent US10028956B2, “Methods of treating various cancers using an AXL/cMET inhibitor in combination with other agents” (Ignyta, Inc., priority 2013, dated 2018).
# Marks after values point to notes of the source that are not given here.
# Tests used:
# [1] = target: T1, AXL (Homo sapiens, UniProt P30530); assay: Cellular AXL inhibition in AXL-transfected 293GT cells; format: cell-based
# T1 sequence (P30530 26-894): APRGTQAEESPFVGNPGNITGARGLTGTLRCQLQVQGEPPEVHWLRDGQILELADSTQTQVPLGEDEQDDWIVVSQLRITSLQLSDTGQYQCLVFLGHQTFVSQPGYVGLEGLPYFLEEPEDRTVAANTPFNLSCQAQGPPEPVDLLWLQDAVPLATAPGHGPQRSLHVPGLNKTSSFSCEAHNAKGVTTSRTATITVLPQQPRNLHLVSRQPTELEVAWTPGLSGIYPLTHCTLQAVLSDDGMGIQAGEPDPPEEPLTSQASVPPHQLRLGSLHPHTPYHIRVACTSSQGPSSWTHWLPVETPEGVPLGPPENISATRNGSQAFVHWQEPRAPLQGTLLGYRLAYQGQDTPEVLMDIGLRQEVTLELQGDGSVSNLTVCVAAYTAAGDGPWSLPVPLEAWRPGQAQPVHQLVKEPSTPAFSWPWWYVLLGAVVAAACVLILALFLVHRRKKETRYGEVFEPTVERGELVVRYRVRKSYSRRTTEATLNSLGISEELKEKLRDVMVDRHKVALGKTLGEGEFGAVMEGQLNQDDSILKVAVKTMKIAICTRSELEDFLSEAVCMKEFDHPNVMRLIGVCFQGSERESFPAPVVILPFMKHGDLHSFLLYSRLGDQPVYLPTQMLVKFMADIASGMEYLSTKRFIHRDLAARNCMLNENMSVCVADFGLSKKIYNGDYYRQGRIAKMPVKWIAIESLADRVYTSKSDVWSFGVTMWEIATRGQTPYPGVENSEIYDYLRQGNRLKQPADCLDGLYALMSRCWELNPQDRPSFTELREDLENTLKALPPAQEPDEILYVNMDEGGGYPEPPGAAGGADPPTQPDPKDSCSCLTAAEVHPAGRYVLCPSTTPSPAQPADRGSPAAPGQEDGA
# [2] = test system: CTG-0159 primary NSCLC human TumorGraft; assay: NSCLC TumorGraft model CTG-0159; format: in vivo, mice; conditions: CTG-0159, 14 days
# Description: Methods (for the experiments shown in FIGS. 10 and 11) • Female immunocompromised nu/nu mice (Harlan) between 6-9 weeks of age were housed on irradiated papertwist-enriched ⅛″ corncob bedding (Sheperd) in individual HEPA ventilated cages (Innocage® IVC, Innovive USA) on a 12-hour light-dark cycle at 68-74° F. (20-23° C.) and 30-70% humidity. Animals were fed water ad libitum (reverse osmosis, 2 ppm Cl2) and an irradiated Test rodent diet (Teklad 2919) consisting of 19% protein, 9% fat, and 4% fiber. • Tumor Models: Champions TumorGraft models of NSCLC are owned by Champions Oncology. In this study, animals were implanted unilaterally on the right flank with tumor fragments harvested from host animals. […] Erlotinib (manufacturer: OSI Pharmaceuticals; National Drug Code: 50242-062-01; Lot #: US0002) was formulated using 100% PEG-400 as the vehicle according to manufacturer's specifications.
# Efficacy measurements: Beginning Day 0, tumor dimensions were measured twice weekly by digital caliper (Fowler Ultra-Cal IV) and data including individual and mean estimated tumor volumes (Mean TV±SEM) were recorded for each group; tumor volume was calculated using the formula TV=width^2×length×0.52. At study completion, percent tumor growth inhibition (% TGI) values were calculated and reported for each treatment group (T) versus control (C) using initial (i) and final (f) tumor measurements by the formula: % TGI=1−Tf−Ti/Cf−C; single agent or combination therapies resulting in a TGI>50 at study completion are considered active in the tested model at the evaluated treatment regimen according to NCI guidelines. […] If the PR persisted until study completion, percent tumor regression (% TR) was determined using the formula: % TR=1−Tf/Ti×100; a mean value was calculated if multiple PR mice occurred in one group. […] Statistical differences in tumor volume were determined using a two-tailed One-Way Analysis of Variance (ANOVA) followed by the Dunett's multiple comparisons test comparing treated groups with control and combinations with standard agent alone when possible. […]
structure (smiles),measurement,setting,value
"COc1cc2nccc(Oc3ccc(NC(=O)c4cn(C(C)C)c(=O)n(-c5ccc(F)cc5)c4=O)cc3F)c2cc1OC [CEP-40783, 3-(4-Fluorophenyl)-1-isopropyl-2,4-dioxo-1,2,3,4-tetrahydropyrimidine-5-carboxylic acid [4-(6,7-dimethoxyquinolin-4-yloxy)-3-fluorophenyl]-amide]",IC50,[1],0.26 nM
same,% Tumor Growth Inhibition,[2]; 10 mg/kg po/qd,46%*
same,% Tumor Growth Inhibition,[2]; 30 mg/kg po/qd,66%*†
